Each structure is given as a SMILES string. Values joined by “and” are separate entries in the source; they are usually repeats but may differ in a detail not shown here. Equal entries are not always repeated.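 All cell lines were grown in 96-well plates and treated with compound for 48 hours. The concentration for 50% growth inhibition is given as GI50. Definition used: TGI = concentration required for complete inhibition of growth.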 Bounds are passed on as bounds.

Among the data in PubChem BioAssay (NCI) are GI50 and TGI values, retold here.

The test has as its system MDA-MB-468 breast. Nature of the test: NCI tumour cell line growth inhibition, 48 h.
On to `Cc1c(C(=O)/C=C/c2csc3ccccc23)[n+](=O)c2ccccc2n1[O-]`, for which the GI50 was 1710 nM and the TGI amounted to 3600 nM.

Take `COc1cccc(/C=C/C(=O)c2cccc(Nc3nc(Nc4ccccc4)nc(Nc4ccccc4)n3)c2)c1`: the GI50 was 2500 nM and the TGI amounted to 11300 nM.

Regarding `C=CCc1c2c(c(OC)c3ccoc13)C(=O)/C(=C/c1ccccc1OC)O2`, the GI50 was 2460 nM and the TGI was found to be 7850 nM.

As for `COc1c(CCC[P+](c2ccccc2)(c2ccccc2)c2ccccc2)cc2c(c1OC)OCO2`, the GI50 is 256 nM and the TGI amounted to 1180 nM.

Turning to `CN1CCN(CCc2cccc(C(=O)c3cnn(-c4ccc(F)cc4)c3N)c2)CC1`, the GI50 is above 25000 nM and the TGI is above 25000 nM.

Turning to `COC(=O)/C=C/C=C(c1ccccc1)c1ccccc1`, the GI50 is 3470 nM and the TGI was 18700 nM.

For `ClCCn1c(CCl)nc2ccc(Cl)cc21`, the GI50 is 1680 nM and the TGI came to 3420 nM.

As for `COC(=O)[C@]12CC[C@@H](C)[C@H](C)[C@@H]1C1=CC[C@@H]3[C@@]4(C)C[C@@H](OC(C)=O)[C@H](O)[C@@](C)(COC(C)=O)[C@@H]4[C@H](O)C[C@@]3(C)[C@]1(C)CC2`, the GI50 is 2330 nM and the TGI was determined as 7270 nM.

Regarding `CNC(=O)n1ccc2cc(Oc3ccnc(NC(=O)c4ccc(C5CCN(CCO)CC5)cc4)c3)c(OCCOC)cc21`, the GI50 is 1990 nM and the TGI is 4220 nM.

Turning to `CCN(Cc1ccc(F)c(F)c1)c1ccc(CO)c(Cl)c1`, the GI50 was 16.2 nM and the TGI turned out to be 43.8 nM.

Take `COC1(C(=O)N[C@@H](C)c2ccc(-n3cc(F)cn3)nc2)CCC(c2nc(C)cc(Nc3cc(C)[nH]n3)n2)CC1` (some centres undefined): the GI50 was 1980 nM and the TGI amounted to 6960 nM.

Regarding `Cc1ccc2c(ccc3c[n+]4c5ccccc5ccc4n32)c1`, the GI50 was 541 nM and the TGI worked out at 2470 nM.

With `CNC(=O)c1cncc(/C=C/c2ccccc2C)c1`, the GI50 is above 25000 nM and the TGI was above 25000 nM.

As for `Cc1[c-]onc1C.Cc1[c-]onc1C.[Ag].[Ag].[NH-]S(=O)(=O)c1ccc(N=Nc2cc(N=Nc3ccc(S([NH-])(=O)=O)cc3)c3c(NC(=O)C(Cl)Cl)cccc3c2OC(=O)C(Cl)Cl)cc1`, the GI50 is 1920 nM and the TGI worked out at 8480 nM.

As to `O=S(=O)(NC1CC2CCC1C2)c1ccc2c(c1)C(=NO)c1cc(S(=O)(=O)NC3CC4CCC3C4)ccc1-2` (centres undefined), the GI50 is 327 nM and the TGI amounted to 1090 nM.

With `COc1ccc(C(=O)/C=C/c2ccc(/C=C/c3cc(OC)c(OC)c(OC)c3)cc2)cc1`, the GI50 was 3390 nM and the TGI is 48700 nM.

For the molecule `C[C@@H](C(=O)Nc1ccc(Cl)cc1)C1CCC(c2ccnc3ccc(F)cc23)CC1` (some centres undefined), the GI50 is 2700 nM and the TGI is 14100 nM.

Take `COC(=O)[C@@H](C)C[C@H](Cc1ccccc1)NC(=O)c1nc([C@@H](C[C@H](C(C)C)N(C)C(=O)[C@@H](NC(=O)[C@H]2CCCCN2C)C(C)C)OC(C)=O)sc1C`: the GI50 was below 1.67 nM and the TGI was above 16700 nM.

Turning to `COC(=O)[C@H](Cc1cn(C)cn1)NC(=O)[C@H](Cc1c[nH]c2ccccc12)NC(=O)Nc1cc(C(F)(F)F)cc(C(F)(F)F)c1`, the GI50 was above 10000 nM and the TGI was above 10000 nM.

Consider `CCN1C(=O)N(CC)C2C1NN=c1s/c(=C\c3cccnc3)c(=O)n12` (centres undefined), for which the GI50 is 363 nM and the TGI is above 100000 nM.

For `CC(C)NC[C@@H](C(=O)N1CCN(c2ncnc3c2[C@H](C)C[C@H]3O)CC1)c1ccc(Cl)cc1`, the GI50 is 112 nM and 134 nM; the TGI was 582 nM and 2190 nM.

In the case of `COc1cc(C2c3cc4c(cc3OC(N3CCCC3)C2C)OCO4)cc(OC)c1OC` (centres undefined), the GI50 was 416 nM and the TGI came out at 54800 nM.

Regarding `Cc1ccc(/C=C2\CN(C(=O)OC(C)(C)C)C/C(=C\c3ccc(C)cc3)C2=O)cc1`, the GI50 was 87.8 nM and the TGI is above 100000 nM.

In the case of `COc1ccc2c(c1)O/C(=C\c1cccc(OCC(=O)Nc3nc4c(s3)CCCC4)c1)C2=O`, the GI50 was 1710 nM and the TGI worked out at 48400 nM.

`CCCCCn1c(=N)n(CC(O)COc2cccc(C)c2)c2ccccc21` (centres undefined): the GI50 was 2380 nM and the TGI was determined as 5290 nM.

As for `CCN(CC)c1ccc(C(=C2C=CC(=[N+](CC)Cc3cccc(S(=O)(=O)O)c3)C=C2)c2ccc(N(CC)Cc3cccc(S(=O)(=O)O)c3)cc2)cc1`, the GI50 is 2580 nM and the TGI was 15900 nM.

For `C=C1C(=O)O[C@H]2[C@H]1CC/C(COC(=O)NCc1ccccc1OC)=C\CC[C@@]1(C)O[C@@H]21`, the GI50 is 669 nM and the TGI came out at 2800 nM.

As for `N#Cc1cnc2cc(OC[C@H](O)CO)c(NC(=O)CC3CSSC3)cc2c1Nc1ccc(OCc2cccc(F)c2)c(Cl)c1`, the GI50 is 118 nM and the TGI turned out to be 363 nM.

For the molecule `C[C@H](Nc1ncnc2nc[nH]c12)c1cc2cccc(Cl)c2c(=O)n1-c1ccccc1`, the GI50 was 1550 nM and the TGI stood at 22900 nM.

In the case of `COc1cc(Cl)cc(-c2nn(C(=O)NCCN3CCOCC3)cc2-c2ccncc2)c1`, the GI50 is 2000 nM and the TGI amounted to 11500 nM.

Take `CC(C)(C)C[C@H]1NC(C(=O)NCC[C@H](O)CO)[C@H](c2cccc(Cl)c2)[C@@]12C(=O)Nc1cc(Cl)c(F)cc12` (some centres undefined): the GI50 was 12400 nM and the TGI came out at 27300 nM.

For `CCN(CC)S(=O)(=O)c1ccc(OC)c(Nc2ncc(-c3ccccc3)o2)c1`, the GI50 was above 10400 nM and the TGI was above 25000 nM.

In the case of `O=C(CCCCCCNC(=O)C(O)(O)C(F)(F)F)Nc1ccc(-c2ccccc2)cc1`, the GI50 was 861 nM and the TGI came to 3100 nM.

For the molecule `Nc1c(C(=O)Nc2cccc([N+](=O)[O-])c2)sc2nc3c(cc12)C(O)CCC3` (centres undefined), the GI50 was 2110 nM and the TGI was above 100000 nM.

With `CC1SC(c2c(Cl)cccc2Cl)N(NC(=O)c2[nH]c3ccc(F)cc3c2-c2ccccc2)C1=O` (centres undefined), the GI50 was 3720 nM and the TGI came to 29900 nM.

Consider `O=C1OC(=O)C(c2c[nH]c3ccccc23)=C1c1c[nH]c2ccccc12`, for which the GI50 was above 19300 nM and the TGI is above 25000 nM.

Consider `O=CNc1c(Cl)cc2c(c1Cl)Cc1cc([N+](=O)[O-])ccc1-2`, for which the GI50 is 317 nM and the TGI was found to be 1270 nM.
